# From a melting point compilation (Tetko et al.; mined from patent text by program, amines drawn as free bases though some values may be those of a salt)
row,Compound,melting point [°C]
1,N#CC(C(=O)Nc1cccnc1)C(=O)c1nn(-c2ccccc2)c2c1COc1ccccc1-2 (centres undefined),280 to 282
2,COc1cc(OC)nc(NS(=O)(=O)C(C#N)C(C)C)n1 (centres undefined),91 to 93
3,C=C(ON1C(=O)[C@@H](NC(=O)OC(C)(C)C)[C@@H]1C)C(=O)O,127 to 130
4,CCn1ccc2c(C)nc3c(Br)cnn3c21,113 to 114
5,Nc1c(Cl)c(Oc2ccccc2)nc(C(=O)O)c1Cl,158 to 160
6,CC(C)(C)c1ccc(/C=C/C(=O)Nc2cccc(OCC(=O)O)c2)cc1,166 to 172
7,O=C(c1ccccc1Cl)c1cc(Cl)ccc1-n1cnnc1CCl,139 to 140
8,CCc1c(OC)nc2nc(C#N)cn2c1C,166 to 168
9,CCOC(=O)N(CC(=O)O)n1nnc2ccccc21,189 to 192
10,O=C(O)C1=Cc2cc(Br)ccc2OC1C(F)(F)F (centres undefined),190 to 191
11,CCOC(=O)c1cn(-c2nc3ccccc3s2)cn1,131 to 133
12,COC(=O)C1(F)C(=O)N(C)C(=O)NC1O (centres undefined),160 to 161
13,N#CC1(N2CCC(O)CC2)CCSCC1,79 to 81
14,CC(=O)NC(COC(F)F)C(=O)NCc1ccccc1 (centres undefined),173
15,COc1ccc(NC(=O)c2ccc(C(C)(C)C)cc2)c([N+](=O)[O-])c1,103 to 107
16,CC(C)n1c(=O)cc(C(F)(F)F)[nH]c1=O,127 to 129
17,N#Cc1ccc(-c2nc(S)[nH]c2-c2ccc(Br)cc2)cc1,307 to 311
18,O=[N+]([O-])c1ccc(CN2CCN(CC(O)COc3cccc4[nH]c5ccccc5c34)CC2)o1 (centres undefined),54 to 59
19,CCCNC(=O)N(Cc1ccc(C)cc1)NC(=O)OC(C)(C)C,87.8 to 89.4
20,CC(CCCc1ccccc1)n1nnc2c(=O)[nH]c(Cc3ccccc3)nc21 (centres undefined),112
21,CCC(=O)Oc1cc(OC)cc(OC)c1C(=O)C=Cc1ccc(SC)cc1,108

row,Compound,melting point [°C]
1,C#Cc1ccc(N(c2ccc(C#C)cc2)c2ccc(C#C)cc2)cc1,115
2,COc1cncnc1OCc1ccc(C(C)(C)C)cc1,58 to 59
3,O=C(O)c1ccc(COc2ccccc2-c2cc(O)c(SCCc3ccccc3)c(=O)o2)cc1,227
4,O=C(O)c1ccc(C=CC(=O)c2ccccc2)cc1,222 to 224
5,Nc1ccc(C(=O)NNC(=O)CCCCN2CCC(Cc3ccccc3)CC2)cc1,163 to 165
6,CCOC(=O)c1cn2c(cc(OC)c3ccccc32)n1,175 to 176
7,CC(C)(C)c1nnc(-c2ccccn2)[nH]c1=O,114 to 115
8,CSc1nc(-c2ccc(F)cc2)c(-c2ccnc(Nc3ccccc3)c2)[nH]1,228
9,Cc1ccc(CC2(O)CCN(CC(=O)Nc3ccc(O[Si](C)(C)C(C)(C)C)cc3)CC2)cc1,136 to 138
10,O=C(c1cc(-c2ccccc2)ccn1)N(O)Cc1ccccc1,160 to 165
11,CCOC(=O)/C=C/c1c(-c2ccccc2)c2ccccc2c(=O)n1C,163 to 165
12,O=S1c2ccccc2Nc2nccnc21 (centres undefined),261 to 263
13,CN(C)Cc1ccc(-c2nc(C(=O)Nc3nccs3)c(-c3ccc(Cl)cc3)[nH]2)cc1,143 to 145
14,NC(=O)c1cc(-c2ccnc(Nc3cccc(OC(F)(F)C(F)F)c3)n2)ccn1,224 to 225
15,COc1ccc(N2CCN(N)CC2)cc1,107
16,O=C(O)CNC(=O)[C@H]1CC[C@H](C(=O)N2CCN(C3CCNCC3)CC2)CC1,260 to 270
17,N#Cc1ccccc1C(=O)c1ccccc1S,94
18,CC(C)(C)c1cc(I)c(O)c(C=O)c1,77
19,O=S(=O)(c1ccc(Cl)cc1)C(CCc1ccccc1)c1cc(F)ccc1F (centres undefined),111 to 113
20,O=C(Nc1ccc(CN2C(=O)[C@H]3CCC[C@H]3N(C(=O)CN3C(=O)c4ccccc4C3=O)c3ccccc32)cc1)c1ccc(Br)cc1 (relative stereo),175 to 180
21,O=C(N[C@H](Cc1ccc(C(F)(F)F)cc1)[C@@H](O)c1ccc(F)cc1)c1cccc2cccc(Br)c12 (racemic),191 to 192

row,Compound,melting point [°C]
1,CCCC(=O)OCC(=O)C1(OC(=O)CC)CCC2C3CC(C)C4=CC(=O)CCC4(C)C3C(O)CC21C (centres undefined),211
2,COc1cc(OC)nc(NC(=O)N=NS(=O)(=O)C2SCCCN2C)n1 (centres undefined),188 to 190
3,CCOC(=O)CC(=O)C=Cc1ccccc1[N+](=O)[O-],72
4,COc1ccc(-c2ccc(Br)cc2N)cc1,128 to 130
5,COc1nc(C)cnc1N(C(=O)OCC(C)C)S(=O)(=O)c1cccnc1-c1ccc(CC(C)C)cc1,133 to 137
6,CCCN(Cc1csc(C(C)C)n1)C(=O)N[C@H](C(=O)N[C@@H](Cc1ccccc1)C[C@H](O)[C@H](Cc1ccccc1)NC(=O)OCc1cncs1)C(C)C,62 to 64
7,Cc1cc(C)c2c(c1)C(=O)C1(CCNCC1)CC2,> 260
8,CCCCCN(CCCCC)C(=O)C(CCC(=O)OC)CS(=O)c1ccc(Cl)c(Cl)c1 (centres undefined),64 to 65
9,CCOC(=O)Cn1c(C(=O)NCc2nnc(CO)n2-c2sc(CC)cc2C(=O)c2ccccc2Cl)cc2ccccc21,92 to 96
10,Cn1ccc2c(ccc3[nH]cc(CCNCc4ccccc4)c32)c1=O,186 to 192
11,Oc1cccc(-n2cnc3cc(C(F)(F)F)ccc32)c1,168 to 170
12,COc1ccc(CN(Cc2ccc(OC)cc2)c2nc(-c3ccccc3)c(-c3ccc(=O)n(C(C)C)n3)nc2C(N)=O)cc1,120 to 122
13,Cc1nc2c(s1)C(=O)N(C(C)(C)C)C2=O,106
14,CCCCCCCCCCC[C@@H](C[C@@H]1OC(=O)[C@H]1CCCCCC)OC(=O)CC(=O)NC(C)C,59
15,O=[N+]([O-])c1oc2cc(NS(=O)(=O)C(F)(F)F)ccc2c1-c1ccccc1,114 to 120
16,CN(C)C1(c2cccc(F)c2)CCC(c2[nH]c3ccccc3c2CCc2ccncc2)CC1 (centres undefined),301 to 314
17,CCCCCS(=O)(=O)NC(=O)/C=C/c1ccc(OCCC2OCCO2)cc1Oc1ncc(C(F)(F)F)cc1Cl,116 to 118
18,CC(C)(C)C(=O)N1C(=O)C(C)(C)NC(C)(C)C1=O,100 to 102
19,CC(C)(C)OC(=O)N1CCC(CNc2ccccn2)CC1,126 to 130
20,CCOC(=O)C1CC2CCC(=O)N2C1=O (centres undefined),65 to 67
21,O=CNc1ccc(C=O)cc1[N+](=O)[O-],183 to 191

# Further lines, results first:
row,melting point [°C],Compound
1,96 to 98,COC(=O)CCCc1cc2cc(Cl)ccc2n1S(=O)(=O)c1c(C)noc1C
2,221 to 230,Cc1nc(-c2ccc3c(c2)NC(=O)CO3)c(-c2ccccc2)s1
3,152 to 153,COC(=O)NC(=O)n1cc(C(=O)c2ccn3c2CSC3c2cccnc2)c2ccc(OCc3ccccc3)cc21 (centres undefined)
4,238,O=C(O)c1cnn2c(C(F)(F)F)cc(-c3ccc(Cl)cc3)nc12
5,233 to 234,O=C(O)c1c(-c2ccccc2)c2cc(Cl)c(Cl)cc2oc1=O
6,67 to 71,CC12C=CCC1C1CCC3=CC(=O)CCC3C1CC2 (centres undefined)
7,158,Cc1cccc(NC(=O)NCC(=O)N(CC(=O)OCC2CC2)c2ccccc2)c1
8,89 to 91,C=CCOc1ccc2cc(C(=O)OCC)[nH]c2c1
9,163,COC(=O)c1cnc(S)n1C1CCSc2ccccc21 (centres undefined)
10,150 to 151,CCN1c2ncccc2C(=O)Nc2c(C(F)(F)F)cc(C)nc21
11,165,Cc1c(F)cccc1Cc1c(-c2ccccc2)c2cc(O)cnn2c1C(=O)N1CCN(C(=O)OC(C)(C)C)CC1
12,213 to 215,Cc1c(-c2ccccc2)n(-c2c(F)cccc2F)c(-c2ccccc2Cl)cc1=O
13,205 to 208,CN1CC(=O)N(c2cc(Cc3n[nH]c(=O)c4ccccc34)ccc2F)C(=O)C1
14,180 to 181,COc1cc(COc2nn(-c3ccccc3)cc2C=O)ccc1OCc1nc(N2CCCCC2)sc1C
15,73 to 78,Cn1cc(Cc2ccc(C(=O)N3CCC(N4CCCC4)C3)cc2)c2ccccc21 (centres undefined)
16,93 to 94,CNc1sc(Cl)cc1C(=O)c1ccccc1F
17,151 to 154,COc1ccc(CNn2c(=O)ccc3ccc(Cl)nc32)cc1Cl
18,257 to 259,CCCc1ccnc2c(=O)[nH]c(-c3cc([N+](=O)[O-])ccc3OCC)nc12

row,melting point [°C],Compound
1,159 to 166,O=S1(=O)Cc2cc(Cl)ccc2Oc2ccccc21
2,144 to 148,O=C(Nc1ccn(C2OC(CO)C(O)C2(F)F)c(=O)n1)OCc1ccc([N+](=O)[O-])s1 (centres undefined)
3,185 to 186,O=C(NN1CCCCCC1)c1nc(-c2ccc(Cl)cc2Cl)c(-c2ccc(Cl)cc2)s1
4,110 to 112,CN1CCN(CCOc2ccc3nc(C#N)nc(NC4CCCC4)c3c2)CC1
5,264 to 266,CNC(=O)c1cc2c(cn1)[nH]c1ccccc12
6,110,COC(=O)c1ccc(F)c2c1CC(N(CCCc1c[nH]c3ccc(F)cc13)C1CCC1)CO2 (centres undefined)
7,188 to 190,Cc1[nH]c2c(N3CCNCC3)cccc2c1S(=O)(=O)c1ccccc1
8,135 to 136,CCC1(CC(=O)O)OCCc2c1[nH]c1ccccc21 (centres undefined)
9,232 to 233,CCCC(CC)Nc1cc(C(=O)O)ccc1N1C(=O)CCC1(CO)CO (centres undefined)
10,182 to 184,CN1C(=O)C(NC(=O)CCc2ccc(Cl)cc2Cl)CC(=O)c2ccccc21 (centres undefined)
11,82,CCCCc1cc2c(N=C3SC[C@@H]4Cc5ccccc5CN34)cccc2cn1
12,206 to 207,COC(=O)c1cc(-c2ccc(C)c(F)c2)n[nH]c1=O
13,195,CC(=NNc1ccc(C2=NNC(=O)CO2)cc1)c1ccncc1
14,> 260,Cc1cc(C2C3=C(CCS3)NC3=C2C(=O)CCC3)ccc1F (centres undefined)
15,276,CCOC(=O)c1c(=O)c2cc(F)c(Cl)cc2n2c(CN(C)C)csc12
16,105 to 110,COc1ccc(Oc2c(C)cc([N+](=O)[O-])cc2C)cc1Cc1ccc(F)cc1
17,205 to 207,COc1ccc2c(c1)CCC1CCNC(=O)C(CC(C)N(Cc3ccccc3)C(C)C)=C21 (centres undefined)
18,210 to 212,CS(=O)(=O)c1ccc(-c2cnn(-c3cccc(Br)c3)c(=O)c2-c2ccc(F)cc2)cc1
